Experimental data: patent US11603368B2, “Fused thiophene derivatives and their uses” (ENYO PHARMA, priority 2018, dated 2023)

Legend:
[1] = tested on: H1N1 (influenza A/New Caledonia/20/99); assay: Antiviral effect on A549 cells infected with H1N1; type: cell-based, H1N1 A/New Caledonia/20/99 virus; settings: Human A549 cells, MOI of 0.1, 48 h post-infection, MUNANA hydrolysis readout
Description: The antiviral effect of the compounds of the invention has been tested on A549 cell lines infected with H1N1 (influenza A/New Caledonia/20/99).
Human A549 cells (80,000 cells/well in a 96 well plate) were treated with a range of concentration of test molecules and immediately infected by H1N1 A/New Caledonia/20/99 virus (clinical isolate) at MOI of 0.1 in DMEM/1% Penicillin/streptomycin supplemented with 0.25 μg/ml TPCK trypsin (Sigma) and incubated at 37° C. in 5% CO2. 48 h post-infection, supernatants (25 μl) were collected and transferred into a 96-well black flat-bottom plate, mixed with 25 μl PBS with Ca++/Mg++(Thermo Fisher) and 50 μl of 2′-(4-Methylumbelliferyl)-α-D-N-acetylneuraminic acid sodium salt hydrate stock-solution (20 μM, MUNANA, Sigma). Plates were incubated 1 h at 37° C. and reaction is stopped by adding 100 μl of Stop Solution (glycine 0.1 M pH10.7/25% ethanol). The amount of fluorescent product released by MUNANA hydrolysis (4-MU) was measured in a Tecan spectrophotometer with excitation and emission wavelengths of 365 and 450 nm respectively.

NFκB = NFκB reporter assay, TNFα stimulation; type: cell-based; settings: Homo sapiens; A549 NFκB-NanoLuciferase reporter cells, 4 ng/ml TNFα, 6 hours
From the text: Compounds of the present invention have been tested for their capacity to inhibit NFκB.
The NFκB reporter construct was made by cloning 5 NFκB responsive elements upstream of a NanoLuciferase reporter gene flanked by AAVS1 genomic sequences.
NFκB Responsive element fused with NanoLuciferase and SV40 late Poly(A) signal was amplified from pNL3.2-NFκB-Nluc (Promega) using NFκB-NLUC-F and NFκB-NLUC-R primers and inserted by Infusion (TaKaRa) in AAVS1 SA-2A-puro-pA donor plasmid (Hockemeyer et al, Nat Biotechnol. 2009, 27, 851-7) digested by Sal1. pCRISPR AAVS1-T2 expressing a guide RNA (gRNA) to target human AAVS1 (T2 target sequence) was constructed by inserting AAVS1-T2A hybridized primers in pLentiCRISPR v2-blast (Sanjana et al, Nat Methods. 2014, 11, 783-4) digested by Bsmb1.
A549 cells were transfected by the plasmids and puromycine selected for 5 days (1 μg mL-1). Then clones were obtained by limiting dilution and selected to maximize TNF dependent NFkB-NanoLuciferase induction.
The reporter cells were seeded on a 96-well plate for overnight with DMEM including 10% FBS. Test compounds were added at varying concentrations. The cells then were treated with 4 ng/ml TNFα (Peprotech, ref E251) in DMEM+10% FBS. NanoGlo luciferase assay (Promega) was carried out 6 hours later. Luminescence was measured using a Spark 20M spectrofluorimeter (Tecan). Values were normalized to the luminescence measured in untreated cells.

[2] = biological target: T1, CISD1 Gene Product (mitoNEET) (Homo sapiens, UniProt Q9NZ45); assay: Stability of Fe—S cluster binding of purified NEET protein mitoNEET; type: biochemical; settings: for Time (in minutes) to achieve 50% loss of bound cluster (Absorbance 458 nm), CISD1 Gene Product (mitoNEET) / Residual cluster bound at end of experiment (Percentage Absorbance 458 nm at time zero), CISD1 Gene Product (mitoNEET): pH 6, 37° C., 1:3 protein:compound molar ratio; for Time (in minutes) to achieve 50% loss of bound cluster (Absorbance 458 nm), CISD1 Gene Product (mitoNEET): 6 μM compound, run time 180 minutes, Vehicle Control 80; for Residual cluster bound at end of experiment (Percentage Absorbance 458 nm at time zero), CISD1 Gene Product (mitoNEET): end of 180 minutes, Vehicle Control 16%; for stabiliser or destabiliser of Fe—S cluster binding, CISD1 Gene Product (mitoNEET): time to 50% Fe—S cluster bound loss changed by more than 25% vs Control sample, at the concentrations tested
T1 sequence (Q9NZ45 33-108 limits assumed): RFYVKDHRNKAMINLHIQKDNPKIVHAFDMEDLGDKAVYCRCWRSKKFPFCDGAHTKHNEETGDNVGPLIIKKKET
Description: (§1) The modulator effect on the NEET proteins encoded by human CISD1, CISD2, and CISD3 genes by the compounds of the invention has been tested and is reported below. Particularly, the biochemical function of the NEET proteins is measured by the stability of Fe—S cluster binding of the purified NEET proteins.
(§2) The Fe—S cluster binding capacity of NEET proteins is known to be coordinated by four amino-acids in a stretch of 16 (three Cysteine and one Histidine). As the lability of the Fe—S cluster of NEET proteins is sensitive to the environment, cluster stability measurements are one of the measures of interactions of NEET proteins with small molecules and compounds. NEET protein/2Fe-2S cluster stability can be assessed by monitoring the decay in absorbance of its characteristic 458-nm peak (characteristic of the oxidized 2Fe-2S cluster) over time. Each NEET protein (mitoNEET, NAF-1 and Miner 2) was tested for its Fe—S binding in the absence or presence of a compound according to the invention (see table 2 below). The rate of cluster release (time in minutes to achieve 50% loss of bound Fe—S cluster) was compared for each NEET protein in the presence of one of the compounds of the invention (in a 1:3 protein:compound molar ratio) relative to each protein alone.
(§3) At pH 6, all the three NEET proteins (mitoNEET, NAF-1 and Miner 2) have a characteristic rate of loss of the bound Fe—S cluster that can be measured by the decrease of absorbance at wavelength 458 nm over time, using a spectrophotometer. Thus, Bis-Tris buffer (100 mM Bis-Tris pH6, 100 mM Nacl) was used at pH 6 to dilute either DMSO (Blank sample: Bis-Tris Buffer pH 6, 6 μM DMSO), DMSO and one of the three NEET proteins (Control sample: Bis-Tris Buffer pH 6, 6 μM DMSO, 2 μM purified NEET protein) or DMSO, one of the three NEET proteins and a compound of the invention (Test sample: Bis-Tris Buffer pH 6, 6 μM DMSO, […], 6 μM compound of the invention).
(§4) A reaction mix containing DMSO diluted in the Bis-Tris Buffer with or without a compound of the invention was prepared. The purified NEET protein was the last component added to the reaction mix which was then aliquoted into 4 replicates in 96 wells plates. The absorbance at wavelength 458 nm was taken at 5 minutes intervals at 37° C. with a spectrofluorimeter. The assay run time for CISD2 gene product (NAF-1) was 500 minutes and 180 minutes for both the CISD 1 gene product (mitoNEET) and the CISD3 gene product (Miner 2).
(§5) In addition to time monitoring, residual bound Fe—S cluster to NEET protein was measured at the final point of the spectrometry assay for each Test sample and compared to the Control sample data (in parenthesis table 2). This residual binding is measured by the differential percentage between the absorbance 458 nm at time zero and the absorbance 458 nm at the end of the experiment (i.e. respectively 500 or 180 minutes as described hereabove), showing the percentage of NEET protein still able to bind a Fe—S cluster.
(§6) Analysis of the absorbance enables the time for which 50% loss of bound Fe—S cluster is reached (i.e. a 50% absorbance decrease at 458 nm) for each Test sample and each Control sample (in parenthesis table 2) to be determined. The data are then compared to determine whether the compound of the invention stabilizes or destabilizes the NEET protein/Fe—S cluster binding.

[3] = biological target: T2, CISD2 Gene Product (NAF-1) (Homo sapiens, UniProt Q8N5K1); assay: Stability of Fe—S cluster binding of purified NEET protein NAF-1; type: biochemical; settings: for Time (in minutes) to achieve 50% loss of bound cluster (Absorbance 458 nm), CISD2 Gene Product (NAF-1) / Residual cluster bound at end of experiment (Percentage Absorbance 458 nm at time zero), CISD2 Gene Product (NAF-1): pH 6, 37° C., 1:3 protein:compound molar ratio; for Time (in minutes) to achieve 50% loss of bound cluster (Absorbance 458 nm), CISD2 Gene Product (NAF-1): 6 μM compound, run time 500 minutes, Vehicle Control 310; for Residual cluster bound at end of experiment (Percentage Absorbance 458 nm at time zero), CISD2 Gene Product (NAF-1): end of 500 minutes, Vehicle Control 3%; for stabiliser or destabiliser of Fe—S cluster binding, CISD2 Gene Product (NAF-1): time to 50% Fe—S cluster bound loss changed by more than 25% vs Control sample, at the concentrations tested
T2 sequence (Q8N5K1 57-135 limits assumed): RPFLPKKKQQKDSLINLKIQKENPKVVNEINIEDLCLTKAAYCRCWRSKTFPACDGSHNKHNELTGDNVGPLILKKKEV
Description: as §1, §2, §3, §4, §5, §6

[4] = biological target: T3, CISD3 Gene Product (Miner2) (Homo sapiens, UniProt P0C7P0); assay: Stability of Fe—S cluster binding of purified NEET protein Miner2; type: biochemical; settings: for Time (in minutes) to achieve 50% loss of bound cluster (Absorbance 458 nm), CISD3 Gene Product (Miner2) / Residual cluster bound at end of experiment (Percentage Absorbance 458 nm at time zero), CISD3 Gene Product (DMSO 11%): pH 6, 37° C., 1:3 protein:compound molar ratio; for Time (in minutes) to achieve 50% loss of bound cluster (Absorbance 458 nm), CISD3 Gene Product (Miner2): 6 μM compound, run time 180 minutes, Vehicle Control 60; for Residual cluster bound at end of experiment (Percentage Absorbance 458 nm at time zero), CISD3 Gene Product (DMSO 11%): end of 180 minutes, Vehicle Control 11%; for stabiliser or destabiliser of Fe—S cluster binding, CISD3 Gene Product (Miner2): time to 50% Fe—S cluster bound loss changed by more than 25% vs Control sample, at the concentrations tested
T3 sequence (P0C7P0 15-127): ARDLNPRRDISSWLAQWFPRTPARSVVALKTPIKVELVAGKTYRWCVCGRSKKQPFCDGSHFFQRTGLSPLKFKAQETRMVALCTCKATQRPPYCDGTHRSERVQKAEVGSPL
Description: as §1, §2, §3, §4, §5, §6

[5] = Influenza A virus, H1N1, A549, 48 h

Row | SMILES | IC50 [1, 5] [µM] | EC50 (NFκB) [µM] | IC50 [1] [µM] | Time (in minutes) to achieve 50% loss of bound cluster (Absorbance 458 nm), CISD1 Gene Product (mitoNEET) [2] | Residual cluster bound at end of experiment (Percentage Absorbance 458 nm at time zero), CISD1 Gene Product (mitoNEET) [2] [%] | stabiliser or destabiliser of Fe—S cluster binding, CISD1 Gene Product (mitoNEET) [2] | Time (in minutes) to achieve 50% loss of bound cluster (Absorbance 458 nm), CISD2 Gene Product (NAF-1) [3] | Residual cluster bound at end of experiment (Percentage Absorbance 458 nm at time zero), CISD2 Gene Product (NAF-1) [3] [%] | stabiliser or destabiliser of Fe—S cluster binding, CISD2 Gene Product (NAF-1) [3] | Time (in minutes) to achieve 50% loss of bound cluster (Absorbance 458 nm), CISD3 Gene Product (Miner2) [4] | Residual cluster bound at end of experiment (Percentage Absorbance 458 nm at time zero), CISD3 Gene Product (DMSO 11%) [4] [%] | stabiliser or destabiliser of Fe—S cluster binding, CISD3 Gene Product (Miner2) [4]
1 | COc1ccc(C(=O)Nc2sc3c(c2C(=O)O)CCC(C(C)(C)C)C3)cc1 (centres unmarked) [#1] | 0.0548 | 0.16 | – | – | – | – | – | – | – | – | – | –
2 | CC(C)(C)C1CCc2c(sc(NC(=O)c3ccccc3F)c2C(=O)O)C1 (centres unmarked) [#69] | – | 0.32 | 0.12 | – | – | – | – | – | – | – | – | –
3 | CC(C)(C)C1CCc2c(sc(NC(=O)c3ccccc3)c2C(=O)O)C1 (centres unmarked) [#71] | – | – | 0.16 | 100 min | 34 | stabilisers | 125 min | 15 | destabilisers | 70 min | 42 | –
4 | CC(C)(C)C1CCc2c(sc(NC(=O)c3ccc(Cl)cc3)c2C(=O)O)C1 (centres unmarked) [#10] | 0.026 | 0.3 | – | during 180 minutes | 62 | stabilisers | 290 min | 42 | – | during 180 minutes | 56 | Stabilisers
5 | O=C(Nc1sc2c(c1C(=O)O)CCN(c1ccccc1)C2)c1ccccc1 [#52] | 0.09 | – | – | 100 min | 47 | stabilisers | during 500 minutes | 50 | Stabilisers | during 180 minutes | 54 | Stabilisers
6 | CC(C)OC1CCc2c(sc(NC(=O)c3ccccc3)c2C(=O)O)C1 (centres unmarked) [#103] | 0.97 | – | – | 95 min | 4 | – | 415 min | 4 | Stabilisers | 65 min | 20 | –
7 | CC(C)(C)C1CCc2c(sc(NC(=O)c3ccccc3Cl)c2C(=O)O)C1 (centres unmarked) [#107] | 1.15 | – | – | 105 min | 35 | stabilisers | 255 min | 21 | – | 75 min | 41 | Stabilisers
